pIC50: −log10 of the molar value. Activity calls are given as the source filed them. No cut-off for these calls is given here.
What was measured:
Format in all cases: functional, cell-based
[1] = system: ChaGo; test: (§1) Cytotoxicity against human ChaGo cells after 3 days by MTT assay
[2] = system: SW-620; test: Cytotoxicity against human SW620 cells after 3 days by MTT assay
[3] = system: KATO III cell; test: Cytotoxicity against human KATO III cells after 3 days by MTT assay
[4] = system: BT-474; test: Cytotoxicity against human BT474 cells after 3 days by MTT assay
[5] = system: HepG2; test: Cytotoxicity against human HepG2 cells after 3 days by MTT assay; conditions: for pIC50: HepG2, 72 h
[6] = as §1; conditions: 72 h

Row | Compound | Activity [1] | Activity [2] | Activity [3] | Activity [4] | Activity [5] | pIC50 [6] | pIC50 [5]
1 | CC(=O)O[C@@H]1C[C@H]2C(C)(C)C(=O)C=C[C@]2(C)[C@H]2CC[C@]3(C)C(=CC[C@H]3[C@H]3CO[C@@H]([C@@H](O)C(C)(C)O)C3)[C@@]21C | inactive | inactive | inactive | inactive | inactive |  | 
2 | COC(=O)C[C@H]1C(C)(C)[C@H](O)[C@@H]2CC3=C4CC(=O)O[C@@H](c5ccoc5)[C@]4(C)CC[C@@H]3[C@@]1(C)C2=O | inactive | inactive | inactive | inactive | inactive |  | 
3 | COC(=O)CC[C@@H]1[C@@H](C)C(=O)C([C@@H](OC(C)=O)[C@@]2(O)C(=O)CC[C@]3(C)C2=CC(=O)O[C@H]3c2ccoc2)=CC1(C)C [XYLOGRANATIN C] |  | inactive | inactive | inactive |  | 5.04 | 
4 | COC(=O)C[C@H]1C(C)(C)C(=O)[C@@H]2CC3=C4CC(=O)O[C@@H](c5ccoc5)[C@]4(C)CC[C@@H]3[C@@]1(C)C2=O | inactive | inactive | inactive | inactive | inactive |  | 
5 | CC(=O)O[C@@H]1C[C@H]2C(C)(C)C(=O)C=C[C@]2(C)[C@H]2CC[C@]3(C)C(=CC[C@H]3[C@@H]3COC(=O)C3)[C@@]21C | inactive | inactive | inactive | inactive | inactive |  | 
6 | COC(=O)[C@H](OC(C)=O)[C@H]1[C@]2(C)C[C@]3(O)[C@H]([C@H]2OC(C)=O)[C@H]2O[C@@]4(C)O[C@@]5(CC[C@@]6(C)[C@H](c7ccoc7)OC(=O)C[C@@]6(O)[C@@]25O4)[C@]13C | inactive | inactive | inactive | inactive | inactive |  | 
7 | COC(=O)[C@H](OC(C)=O)[C@H]1[C@]2(C)C[C@]3(O)[C@@](OC(C)=O)([C@H]4O[C@@]5(C)O[C@@]6(CC[C@@]7(C)[C@H](c8ccoc8)OC(=O)C[C@@]7(O)[C@@]46O5)[C@]13C)[C@H]2OC(C)=O | inactive | inactive | inactive | inactive | inactive |  | 
8 | CC(=O)O[C@@H]1C[C@H]2C(C)(C)C(=O)C=C[C@]2(C)[C@H]2CC[C@]3(C)C(=CC[C@H]3[C@H]3CO[C@@H](C4(O)OC4(C)C)C3)[C@@]21C (stereo not given in full) | inactive | inactive | inactive | inactive | inactive |  | 
9 | CC1(C)C(=O)C=C[C@]2(C)[C@H]3CC[C@@]4(C)[C@H](c5ccoc5)OC(=O)[C@H]5O[C@]54[C@]3(C)C(=O)C[C@@H]12 [DEACETOXY-7-OXOGEDUNIN] |  |  |  |  |  |  | 4.79
10 | C=C1[C@@H]2CC[C@@]3(C)[C@H](c4ccoc4)OC(=O)C[C@]13O[C@H]1CC(=O)C(C)(C)[C@H](CC(=O)OC)[C@]12C | inactive | inactive | inactive | inactive | inactive |  | 
11 | COC(=O)C[C@H]1C(C)(C)[C@@H]2O[C@@]34C[C@@H]2C(=O)[C@]1(C)[C@H]3CC[C@@]1(C)[C@@H](c2ccoc2)OC(=O)C[C@]14O | inactive | inactive | inactive | inactive | inactive |  | 
12 | CC(=O)OC1OC(C2OC2(C)C)C[C@@H]1[C@H]1CC=C2C3(C)C(O)CC4C(C)(C)C(=O)CC[C@]4(C)[C@H]3CC[C@@]21C (stereo not given in full) | inactive | inactive | inactive | inactive | inactive |  | 
13 | CC1(C)C(=O)C=C[C@]2(C)[C@H]3CC[C@@]4(C)[C@H](c5ccoc5)OC(=O)[C@H]5O[C@]54[C@]3(C)[C@H](O)C[C@@H]12 [DEACETYLGEDUNIN] |  | inactive | inactive | inactive |  | 4.80 | 4.99
14 | CC(=O)O[C@@H]1C[C@H]2C(C)(C)C(=O)C=C[C@]2(C)[C@H]2CC[C@]3(C)C(=CC[C@H]3[C@H]3CO[C@@H]([C@H](O)C(C)(C)O)C3)[C@@]21C | inactive | inactive | inactive | inactive | inactive |  | 

Source: ChEMBL document CHEMBL1153734, “Protoxylocarpins F-H, protolimonoids from seed kernels of Xylocarpus granatum” (J Nat Prod, 2009)
